Assays:
Fibroblasts = experiment: Procollagen synthesis (type I C-peptide ELISA) in fibroblast culture; type: cell-based, human; conditions: 4 mM, 48 hours, mean ± SD
Text: A fibroblast cell culture model was used to assess the ability of the polysaccharide from Porphyridium to exert an effect on procollagen synthesis. Fibroblasts are the main source of the extracelluar matrix peptides, including the structural protein collagen. Procollagen is a large peptide synthesized by fibroblasts in the dermal layer of the skin and is the precursor for collagen. As the peptide is processed to form a mature collagen protein, the propeptide portion is cleaved off (type I C-peptide). Both the mature collagen protein and the type I C-peptide fragment are then released into the extracellular environment. As collagen is synthesized the type I C-peptide fragment accumulates into the tissue culture medium. Since there is a 1:1 stoichiometric ratio between the two parts of the procollagen peptide, assaying for type I C-peptide reflects the amount of collagen synthesized. […]
A series of type I C-peptide standards was prepared ranging from 0 ng/ml to 640 ng/ml. […] After the incubation 100 μl of stop solution (1 N sulfuric acid) was added to each well and the plate was read using a microplate reader at 450 nm.
To quantify the amount of procollagen present, a standard curve was generated using known concentrations of procollagen. […] Absorbance values for the test and positive control samples was used to determine the amount of procollagen present. […]

hyaluronidase = experiment: Anti-hyaluronidase assay (bHA-coated 96-well plate); type: biochemical; conditions: 0.1%
Method: Biotinylated hyaluronic acid (bHA) was covalently attached to the wells of a 96-well plate. Samples containing hyaluronidase and various test materials were then added to the wells. The hyaluronidase degrades the bound hyaluronic acid, resulting in a decrease in the amount of biotin covalently linked to the well plate. At the end of the incubation period the reaction was stopped and the well plate was washed to remove the hyaluronidase. The remaining bHA was detected using an avidin bound peroxidase enzyme. When an appropriate substrate is added, the peroxidase enzyme generated a color signal in proportion to the amount of bHA. The color signal was measured spectrophotometrically, and was inversely proportional to the amount of hyaluronidase activity in the sample. […] Also see Frost, G. I., Stern, R. A Microtiter-Based Assay for Hyaluronidase Activity Not Requiring Specialized Reagents. Analytical Biochemistry 251, 263-269: 1997. […]
During the 30 minute incubation, an avidin/biotin-peroxidase complex was prepared in 10.5 ml of PBS containing 0.1% Tween 20 using an ABC kit. […] The plate was incubated in the dark for 10-20 minutes and then read at 460 nm using a plate reader. The substrate solution was also added to three wells that were not treated with test materials or the avidin/biotin-peroxidase solution and were used as a blank for the absorbance measurements. […]

[1] = test system: Porphyridium sp. and Porphyridium cruentum; experiment: Antibiotic sensitivity on agar plates; type: cell-based; conditions: 14 days
Method: Approximately […] cells (300 ul of 1.5×10^5 cells per ml) of Porphyridium sp. and Porphyridium cruentum cultures in liquid ATCC 1495 ASW media were plated onto ATCC 1495 ASW agar plates (1.5% agar). The plates contained varying amounts of zeocin, sulfometuron, hygromycin and spectinomycin. The plates were put under constant artificial fluorescent light of approximately 480 lux. After 14 days, plates were checked for growth.

[2] = test system: MatTek EpiDerm® skin model (normal human-derived epidermal keratinocytes); experiment: TT dimer-UV exposure assay in MatTek EpiDerm skin model; type: cell-based; conditions: 1 mM, UVB 300 mJ/cm^2, mean ± SD
Method: TT dimer-UV exposure assay: The testing system used for this assay was the MatTek EpiDerm®, a skin model that consists of normal human-derived epidermal keratinocytes cultured to form a multilayered, highly differentiated model of the human epidermis. For this study, the tissues were treated topically overnight with either test materials, 1 mM Trolox (positive control), or left untreated (negative control). On the following day, the tissues were exposed to UVB (300 mJ/cm^2). Following the exposures the DNA was extracted from the EpiDerm tissues and assayed for thymine dimer content. Samples of the DNA were immobilized on a solid membrane support and incubated with an antibody that recognizes thymidine dimers in double stranded DNA. The primary antibody was detected using a secondary antibody conjugated to an alkaline phosphatase enzyme followed by the addition of a substrate that the alkaline phosphatase enzyme uses to generate a chemiluminescent signal. The light generated by this reaction was captured using film with the intensity of the light signal being proportional to the amount of the thymine dimers present in the sample. Test material BM was Porphyridium sp. biomass that had been homogenized with a Microfluidizer® twice and then lyophilized. […] Extracted DNA was quantified via a fluorometric assay. […]

For `CCCC(=O)[O-].[Na+]` [Na Butyrate, sodium butyrate], the “Type I C-Peptide” value (Fibroblasts) was 1425 ± 81 ng/mL.

With heparin the “Percent Inhibition” value (hyaluronidase) was 74%.

In the case of `CN[C@@H]1[C@H](O)[C@H](NC)[C@H]2O[C@@]3(O)C(=O)C[C@@H](C)O[C@H]3O[C@@H]2[C@H]1O` [Specinomycin], the Growth ([1]; 100.0 ug/ml) is reported as “+ + + +”, the Growth ([1]; 250.0 ug/ml) is reported as “+ + + +” and the Growth ([1]; 750.0 ug/ml) is reported as “+ + + +”.

In the case of `Cc1c(C)c2c(c(C)c1O)CCC(C)(C(=O)O)O2` (stereo not drawn) [Trolox], the “Optical Density (thymidine dimer)” value [2] is reported as 107 ± 1 optical density units.

— patent US10231907B2, “Compositions for improving the health and appearance of skin” (Algenist Holdings, Inc., priority 2006, dated 2019)
